The values below come from a melting point compilation (Tetko et al.; mined from patent text by program, amines drawn as free bases though some values may be those of a salt).

Bounds are passed on as bounds.

Take `COc1cc(OCC(=O)N(C)C)c(/C=C/C(=O)c2ccc(C(=O)O)cc2)cc1-c1cccs1`: the melting point was 197 to 198 °C. `CS(=O)(=O)C(=C1CN(C(c2ccccc2)c2ccccc2)C1)c1ccc2ccccc2c1` returned a melting point of 178 °C. Regarding `CC(C)c1cccc(C(C)C)c1N=c1cccc(-c2ccccc2)[nH]1`, the melting point was 142 to 144 °C.

`CC(=O)N1CCC(C(O)(c2ccccc2)c2ccc(F)cc2)CC1` (centres undefined) returned a melting point of 173 to 175 °C. Consider `Cc1ccc(O)c2[nH]c(Cc3ccccc3)nc12`, for which the melting point was 204 to 205 °C. The figure for `CC(C)OC1=CC2=CCC3C4CCC(=O)C4(C)CCC3C2(C)CC1` (centres undefined) is 147 to 151 °C; for `O=CCCCN1C(=O)c2ccccc2C1=O` it is 70 °C; for `CC(=O)NCCOC(c1ccc(F)cc1)c1ccc(F)cc1` it is 112 to 114 °C.

In turn, `C=CCSc1nsc(S)n1` had a melting point of 107 to 108 °C.

With `CCC(C)OS(=O)(=O)c1ccc(C(=O)c2cc(Cl)ccc2Cl)cc1` (centres undefined), the melting point lay within 73 to 74 °C. For the compound `O=c1ccc(-c2ccc(-c3ccc(=O)[nH]n3)cc2)n[nH]1`, the melting point is more than 250 °C. Then `Cc1ccc(C(=O)Cn2c(-n3ncnc3N)nc3ccccc32)cc1C`, with 190 to 193 °C; and `O=C(NCCO)c1cccc(-c2ccc3ccn(-c4ncc(Cl)cc4Cl)c3n2)c1`, with 196 to 197 °C; and `Cc1cnc(-c2cc3c(O)cccc3s2)o1`, with 188 to 189 °C. As for `CNC(=O)C(=N[C@@H](C)c1ccccc1)C(C)(C)C`, the melting point came to 120 °C. With `O=C(OCc1ccccc1)C1Cc2ccsc2CN1Cc1ccccc1` (centres undefined), the melting point was in the range of 135 to 140 °C. The figure for `CCCCCCCCCCCCCCCCN(C(=O)C(F)(F)F)c1ccc(C(=O)O)cc1` is 50 to 53 °C; for `Cc1cccc2c1nc(-c1cccc(Cl)c1[N+](=O)[O-])n2CC(O)C(C)(C)C` (centres undefined) it is 236 to 237 °C. Compound `Cc1cnc(NC(=O)Nc2ccc(N3CCN(C(=O)Nc4ccc(OCCO)cc4C(F)(F)F)CC3)cc2)s1` showed a melting point of 118 to 120 °C.

In turn, `OC1(c2ccc(C(F)(F)F)cc2)CCN(Cc2ccccc2)CC1` registered a melting point of 115 to 117 °C. Regarding `CCCCCNS(=O)(=O)NC(=O)/C(C)=C/c1ccc(OCCOC)cc1Oc1ncc(C(F)(F)F)cc1Cl`, the melting point was in the range of 152 to 153 °C. `COc1cc(/C=C/C=C/CO)ccc1OCc1nc(-c2ccccc2)oc1C` displayed a melting point of 149 to 151 °C. With `CCCC(=O)c1cc2c(=O)cc(C(=O)OCC)[nH]c2cc1C`, the melting point was 173 to 175 °C. `CC1(C)CC(=C2CC(C)(C)NC(C)(C)C2)CC(C)(C)N1` registered a melting point of 144 to 145 °C. Compound `O=C(OCc1ccc(OCCCCCCc2ccc(Cl)cc2)cc1)c1cccnc1` returned a melting point of 56 to 57 °C.

With `CCOC(=O)CCCCCCCn1c(=O)[nH]c2ccccc2c1=O`, the melting point fell in the range of 88 to 89 °C. Consider `CN1CC(CCN2CCN(c3ncccn3)CC2)c2nc3ccccc3n2C1=O` (centres undefined), for which the melting point lay within 161 to 162 °C. Then `CCCCCCCCCCCCOC(=O)c1ccc2cc(O)ccc2c1`, with 103 to 104 °C.

Compound `O=C1N(CC2COCCO2)c2ccccc2C12COc1cc3c(cc12)OCCCO3` (centres undefined) returned a melting point of 137 to 139 °C. `CON=C(C(=O)OC)C1=C(C(=O)c2ccc(F)cc2)CC(C)=C(C)C1` yielded a melting point of 97 to 98 °C. The compound `CCc1cccc(CC(=O)O)c1OCCn1cc(CCOc2ncc(C(F)(F)F)cc2Cl)c(OC(C)C)n1` registered a melting point of 76.5 to 77.5 °C. `Clc1ccc2onc(Cn3ccnc3)c2c1` showed a melting point of 100 to 102 °C. With `COC(=O)c1cc(Br)c2c(c1Cl)OC(c1ccccc1)(c1ccccc1)O2`, the melting point was in the range of 137 to 138 °C.

Turning to `N#CCCCNc1cccc(/C=C/c2nc3ccccc3s2)c1`, the melting point fell in the range of 97 to 98 °C.

Turning to `CC(=O)C=Cc1c(-c2ccccc2)nn2ccccc12`, the melting point lay within 134 to 136 °C.

Compound `Cn1nnnc1-c1cccc(CCl)c1` showed a melting point of 63 to 65 °C.

`OCc1conc1-c1ccc(Cl)c(F)c1` yielded a melting point of 124 to 125 °C.

For the compound `Cc1c(C2=CCC(c3ccccc3)(N(C)C)CC2)[nH]c2ccc(C#N)cc12` (centres undefined), the melting point lay within 180 to 185 °C. Then `N#CCCNC(=O)c1cccc(-c2ccc3c(c2)N(Cc2cc(Cl)cc(Cl)c2)CC3)c1`, with 179 to 180 °C; and `CSc1ccc(-c2nn(CC3CC3)c(=S)cc2-c2ccc(Cl)cc2)cc1`, with 135 °C. On to `CCCCNC(=O)Nc1ccc(S(C)=O)cc1C(=O)NCC1CCN(C(c2ccccc2)c2ccccc2)CC1` (centres undefined), for which the melting point lay in the range of 178 to 179 °C.

For the compound `CCCCCCCCCCOc1ccc(Oc2cccc(C(=O)O)c2)cc1CCC(=O)O`, the melting point lay in the range of 102 to 104 °C.

The compound `COC(=O)c1csc(-c2ccc(F)cc2)n1` gave a melting point of 103 to 105 °C. Consider `Cc1[nH]c2ccc(CCN3CCN(C)CC3)cc2c1C(=O)OCc1ccccc1`, for which the melting point lay in the range of 167 to 168 °C. For `CCn1c(=O)n(CCOCCOC)c(=O)c2c1ncn2Cc1ccccc1`, the melting point amounted to 140 °C.

Regarding `O=C1Cc2cc(C(=O)c3ccccc3)ccc2N1`, the melting point was in the range of 204 to 205 °C.

Regarding `CCCCCCc1ccc(C(=O)Cc2ccc(Br)cc2)cc1`, the melting point turned out to be 108 °C.

Compound `Clc1ccc2c(c1)C(c1ccccc1Cl)=NCc1cncnc1-2` gave a melting point of 120 to 121 °C. For `CCc1cc(CCCOc2c(C)cc(C#N)cc2C)on1`, the melting point lay within 50 to 51 °C. Then `COCCNS(=O)(=O)c1ccc(Nc2nccc(-c3sc(-c4cccnc4)nc3C)n2)cc1`, with 252 to 254 °C; and `Brn1nnc2c3scnc3ccc21`, with 282 to 285 °C; and `COC(=O)CCCC(=O)c1ccc(OC)c(CCC(=O)OC)n1`, with 64 to 66 °C. On to `COc1ccc(C2(C3CCCCC3=O)CCC(=O)CC2)c2c1OCCO2` (centres undefined), for which the melting point lay within 268 to 269 °C. `NC(=O)COCC(Cc1ccccc1)NC(=O)[C@@H]1CCCN1C(=O)OCc1ccccc1` (some centres undefined) showed a melting point of 137 to 142 °C. `COC(=O)c1ccc(C(=O)N2Cc3cccn3Cc3ccccc32)cc1` came in with a melting point of 186 to 188 °C.

In turn, `O=[N+]([O-])c1ccccc1C(Cl)Cl` gave a melting point of 25.6 to 26.7 °C. `COC(=O)Cc1ccc(OCC(C)NCC(O)c2ccc(Cl)cc2)cc1` (centres undefined) had a melting point of 78 to 79 °C. As to `COc1ccc(OC)c(Cc2c(C)c3c(N)nc(N)nc3[nH]c2=O)c1`, the melting point fell in the range of 325 to 326 °C. `CCCCn1c(N)nc2ccc(C3CCc4cncn43)cc21` (centres undefined) displayed a melting point of 196 °C. Take `CCOc1ccc2c(c1)n(C1CCCCC1)c(=O)n2S(=O)(=O)c1ccc(NC(=O)N(CC)CC)cc1OC`: the melting point came out at 165 °C. In turn, `COc1ccc(C2=CNC(=O)NC2)cc1OC1Cc2ccccc2C1` had a melting point of 198 to 201 °C. In the case of `CCc1nnc2c(NC)nc3ccccc3n12`, the melting point was 271 to 273 °C. The figure for `Cc1cc(=O)oc2nc(N(C)C)ccc12` is 157 to 160 °C. `O=C1N(CCCl)CCN1C1CCCCC1` gave a melting point of 60 to 64 °C.

`CS(=O)(=O)c1cccc(-n2ccc(=O)c(-c3ccnn3-c3ccccc3)n2)c1` displayed a melting point of 199 to 200 °C. The figure for `CCOC(=O)Cc1ccccc1I` is 40.5 to 41.5 °C; for `COc1cc(OC)nc(SC2CCCC2CC(=O)O)n1` (centres undefined) it is 125 to 127 °C; for `CC(C)(C)c1cc(-c2nc3n(c2SC#N)CCS3)cc(C(C)(C)C)c1O` it is 178 to 179 °C. Compound `CN(C(=O)N1CC(C)(c2ccccc2)C(c2ccc(Cl)cc2)=N1)c1ccc(Cl)cc1` (centres undefined) yielded a melting point of 132 to 135 °C. `OCCc1ccc2c(c1)C(O)c1ccccc1CO2` (centres undefined) displayed a melting point of 135 to 137 °C. The figure for `Cc1nc(C(F)(F)F)ccc1C(=O)C1=C(S(=O)(=O)c2ccccc2)CCCC1=O` is 165 to 167 °C.

The compound `CCc1cc(C(=O)C(c2ccc(O)cc2)c2ccc(O)cc2)cc(C(C)(c2ccc(O)cc2)c2ccc(O)cc2)c1` gave a melting point of 144 to 146 °C. In turn, `Cc1nc(N(C)c2cc(Cl)cc(Cl)c2)sc1-c1ccnc(Nc2ccc(N3CCOCC3)cc2)n1` had a melting point of 216 to 218 °C.

Take `COc1ccc(Cc2ccc(NC3=NCCN3)cc2)cc1`: the melting point fell in the range of 114 to 116 °C. Take `CC1=C(CNC(=O)NCCCN(C)C)c2cc(F)ccc2/C1=C\c1ccc(S(C)(=O)=O)cc1`: the melting point was found to be 147 °C. Then `CCOC(=O)c1nc2ccc(OC)cc2nc1Cl`, with 75 °C; and `CNC(=O)CC=C(CC(C)C)C(=O)O`, with 120 to 122 °C; and `COc1ccc(CNc2nc(Cl)nc(Cl)c2C(=O)O)cc1Cl`, with 150 to 151 °C.

Consider `COc1ccc(-c2ccc(C=CC(=O)O)s2)cc1C(C)(C)C`, for which the melting point was in the range of 218 to 219 °C. Then `O=Cc1cc(-c2cccc(Cl)c2)c2cc(C(c3ccc(Cl)cc3)c3cccnc3)ccc2n1` (centres undefined), with 168 °C.

The compound `O=[N+]([O-])c1cccnc1N1CCNCC1` displayed a melting point of 79 to 82 °C.

As to `CC(=O)Oc1c(C)cc(C=CC(=O)Nc2cnc3c(C)cc(C)cc3c2-c2ccccc2Cl)c(C)c1C`, the melting point lay in the range of 233 to 234 °C. Consider `C=C(C)CN1CCCC(C(=O)O)=Cc2cc(-c3ccc(OCCOCCCC)cc3)ccc21`, for which the melting point lay in the range of 132 to 134 °C. `CCCCN(CCCC)S(=O)(=O)c1ccc(C(CC2CCCC2)C(=O)Nc2nc3ccc(OC)nc3s2)cc1` (centres undefined) displayed a melting point of 65 to 67 °C. The compound `O=c1oc2cc(Br)ccc2c(O)c1[N+](=O)[O-]` came in with a melting point of 155 to 157 °C. Then `CCOc1nn(Cc2ccc(OCc3nc(-c4ccccc4)oc3C)c(OC)c2)cc1CCC(=O)O`, with 122 to 123 °C; and `COc1cc(NS(=O)(=O)c2ccc(Cl)cc2)c(C(=O)Nc2ccc(S(=O)(=O)N3CCSCC3)cc2)cc1OC`, with 216 to 219 °C; and `O=c1[nH]cc(Cc2ccccc2)cc1Br`, with 151 to 152 °C. `NC(=O)c1ncn2c1CN(C(=O)N1CCOCC1)c1ccccc1-2`: the melting point fell in the range of 220 to 221 °C.

The term melting point denotes the temperature of the solid-liquid transition.
